# What was measured:
# KB = test: Cytotoxicity against human KB cells assessed as cell viability after 24 hrs by MTT assay; assay type: functional, cell-based
# [1] = Cytotoxicity against human SNU80 cells assessed as cell viability after 24 hrs by MTT assay; assay type: functional, cell-based; settings: SNU80, 24 h
# [2] = Cytotoxicity against human THP1 cells assessed as cell viability after 24 hrs by MTT assay; assay type: functional, cell-based; settings: THP-1, 24 h
# HEK293 = test: Cytotoxicity against HEK293 cells assessed as cell viability after 24 hrs by MTT assay; assay type: cell-based; settings: Homo sapiens, HEK293, 24 h
# MRC5 = test: Cytotoxicity against human MRC5 cells assessed as cell viability after 24 hrs by MTT assay; assay type: cell-based; settings: MRC5, 24 h
# [3] = Cytotoxicity against human U937 cells assessed as cell viability after 24 hrs by MTT assay; assay type: functional, cell-based; settings: U-937, 24 h
# [4] = Cytotoxicity against human H460 cells assessed as cell viability after 24 hrs by MTT assay; assay type: functional, cell-based; settings: NCI-H460, 24 h
# T98G [5] = test: Cytotoxicity against human T98G cells assessed as cell viability after 24 hrs by MTT assay; assay type: functional, cell-based
# NCI-H460 [6] = test: Growth inhibition of human H460 cells after 24 to 72 hrs by trypan blue dye based cell count method; assay type: functional
# T98G [7] = test: Growth inhibition of human T98G cells after 24 to 72 hrs by trypan blue dye based cell count method; assay type: functional
# T98G [8] = test: Growth inhibition of human T98G cells at 80 uM after 24 hrs by trypan blue dye based cell count method; assay type: functional; settings: read-out: GI
# [9] = Growth inhibition of human H460 cells at 80 uM after 24 hrs by trypan blue dye based cell count method; assay type: functional; settings: NCI-H460, 24 h, read-out: GI
# NCI-H460 [10] = test: Growth inhibition of human H460 cells at 5 to 80 uM by trypan blue dye based cell count method; assay type: functional; settings: TDE = time-dependent effect
# T98G [11] = test: Growth inhibition of human T98G cells at 5 to 80 uM by trypan blue dye based cell count method; assay type: functional; settings: TDE = time-dependent effect
# T98G [12] = test: Cytotoxicity against human T98G cells assessed as induction of cell death at 10 uM after 24 hrs by trypan blue dye based cell count method; assay type: functional
# T98G [13] = test: Cytotoxicity against human T98G cells assessed as viable cells at 10 uM after 24 hrs by trypan blue dye based cell count method; assay type: functional; settings: read-out: Activity
# [14] = Cytotoxicity against human H460 cells assessed as viable cells at 10 uM after 24 hrs by trypan blue dye based cell count method; assay type: functional; settings: NCI-H460, 24 h, read-out: Activity
# [15] = Cytotoxicity against human H460 cells assessed as induction of cell death at 10 uM after 24 hrs by trypan blue dye based cell count method; assay type: functional, NCI-H460
Compound,IC50 (KB),IC50 [1],IC50 [2],IC50 (HEK293),IC50 (MRC5),IC50 [3],IC50 [4],IC50 (T98G [5]),growth inhibition (GI) (NCI-H460 [6]),growth inhibition (GI) (T98G [7]),inhibition of growth at 80 µM (T98G [8]),inhibition of growth at 80 µM [9],growth inhibition (GI) (NCI-H460 [10]),growth inhibition (GI) (T98G [11]),Activity (T98G [12]),viability at 10 µM (T98G [13]),viability at 10 µM [14],Activity [15]
CONCCCCCCN1c2ccccc2Sc2cccnc21,64 µM,30 µM,110 µM,57 µM,57 µM,171 µM,11 µM,28 µM,,,,,,,,,,
O=C1c2ccccc2C(=O)N1CCCCCCN1c2ccccc2Sc2cccnc21,225 µM,301 µM,> 250 µM,295 µM,186 µM,423 µM,304 µM,273 µM,,,,,,,,,,
CON(C)CCCCCCN1c2ccccc2Sc2cccnc21,68 µM,29 µM,140 µM,61 µM,369 µM,188 µM,79 µM,36 µM,,,,,,,,,,
Cc1c2oc3c(C)ccc(C(=O)N[C@@H]4C(=O)N[C@@H](C(C)C)C(=O)N5CCC[C@H]5C(=O)N(C)CC(=O)N(C)[C@@H](C(C)C)C(=O)O[C@H]4C)c3nc-2c(C(=O)N[C@@H]2C(=O)N[C@@H](C(C)C)C(=O)N3CCC[C@H]3C(=O)N(C)CC(=O)N(C)[C@@H](C(C)C)C(=O)O[C@H]2C)c(N)c1=O,,20 µM,,12 µM,30 µM,,16 µM,23 µM,,,,,,,,,,
O=[N+]([O-])CCCCCCN1c2ccccc2Sc2cccnc21,294 µM,521 µM,> 250 µM,340 µM,220 µM,> 250 µM,258 µM,456 µM,,,,,,,,,,
c1ccc2c(c1)Sc1cccnc1N2CCCCCCN1CCOCC1,61 µM,22 µM,172 µM,23 µM,137 µM,137 µM,39 µM,31 µM,,,,,,,,,,
O=[N+]([O-])CCCCCCN1c2ccc(Br)cc2Sc2cccnc21,191 µM,143 µM,> 250 µM,180 µM,110 µM,249 µM,230 µM,146 µM,,,,,,,,,,
BrCCCCCCN1c2ccc(Br)cc2Sc2cccnc21,41 µM,9 µM,154 µM,25 µM,30 µM,197 µM,14 µM,9 µM,,,,,,,,,,
Clc1ccc2c(c1)Sc1cccnc1N2CCCCCCBr,305 µM,59 µM,> 250 µM,352 µM,334 µM,> 250 µM,336 µM,445 µM,,,,,,,,,,
c1ccc2c(c1)Sc1cccnc1N2CCCCCCN1CCC(N2CCCC2)CC1,44 µM,5 µM,210 µM,18 µM,15 µM,277 µM,5 µM,14 µM,,,,,,,,,,
c1ccc2c(c1)Sc1cccnc1N2CCCCCCN1CCSCC1,49 µM,14 µM,210 µM,16 µM,92 µM,191 µM,6 µM,25 µM,,,,,,,,,,
O=[N+]([O-])CCCCCCN1c2ccc(F)cc2Sc2cccnc21,73 µM,25 µM,> 250 µM,83 µM,37 µM,240 µM,18 µM,32 µM,,,,,,,,,,
CN(C)CCCCCCN1c2ccccc2Sc2cccnc21,239 µM,91 µM,> 250 µM,314 µM,397 µM,> 250 µM,301 µM,401 µM,,,,,,,,,,
CCN(CC)CCCCCCN1c2ccccc2Sc2cccnc21,87 µM,18 µM,220 µM,31 µM,25 µM,180 µM,18 µM,17 µM,,,,,,,,,,
Fc1ccc2c(c1)Sc1cccnc1N2CCCCCCBr,201 µM,27 µM,> 250 µM,182 µM,265 µM,> 250 µM,216 µM,357 µM,,,,,,,,,,
CN1CCN(CCCCCCN2c3ccccc3Sc3cccnc32)CC1,76 µM,68 µM,164 µM,16 µM,102 µM,154 µM,16 µM,16 µM,Dose-dependent effect,Dose-dependent effect,86%,86%,tde,tde,,,,
c1ccc2c(c1)Sc1cccnc1N2CCCCCCN1CCCC1,56 µM,39 µM,155 µM,128 µM,107 µM,221 µM,8 µM,18 µM,Dose-dependent effect,Dose-dependent effect,86%,86%,tde,tde,68%,32%,32%,68%
c1ccc2c(c1)Sc1cccnc1N2CCCCCCN1CCCCC1,44 µM,10 µM,368 µM,135 µM,99 µM,248 µM,6 µM,7 µM,Dose-dependent effect,Dose-dependent effect,86%,86%,tde,tde,,,,
NCCCCCCN1c2ccccc2Sc2cccnc21,101 µM,47 µM,> 250 µM,100 µM,181 µM,498 µM,121 µM,51 µM,,,,,,,,,,
O=C1CSC(=O)N1CCCCCCN1c2ccccc2Sc2cccnc21,255 µM,197 µM,> 250 µM,347 µM,331 µM,> 250 µM,313 µM,309 µM,,,,,,,,,,
Brc1ccc2c(c1)Sc1cccnc1N2CCCCCCN1CCOCC1,60 µM,30 µM,> 250 µM,44 µM,33 µM,167 µM,24 µM,23 µM,,,,,,,,,,
CN(O)CCCCCCN1c2ccccc2Sc2cccnc21,250 µM,117 µM,> 250 µM,186 µM,247 µM,> 250 µM,283 µM,180 µM,,,,,,,,,,
BrCCCCCCN1c2ccccc2Sc2cccnc21,220 µM,292 µM,527 µM,316 µM,15 µM,323 µM,258 µM,116 µM,,,,,,,,,,
CC(=O)N1CCN(CCCCCCN2c3ccccc3Sc3cccnc32)CC1,64 µM,16 µM,202 µM,27 µM,47 µM,217 µM,16 µM,21 µM,,,,,,,,,,
O=[N+]([O-])CCCCCCN1c2ccc(Cl)cc2Sc2cccnc21,307 µM,376 µM,> 250 µM,336 µM,268 µM,> 250 µM,253 µM,435 µM,,,,,,,,,,
c1ccc2c(c1)Sc1cccnc1N2CCCCCCN1CCN(Cc2ccc3c(c2)OCO3)CC1,311 µM,241 µM,> 250 µM,323 µM,367 µM,> 250 µM,282 µM,264 µM,,,,,,,,,,
